Results reported in patent US8946147B2 (priority 2010, dated 2015).
Several values for one entry are separate records, joined by “and”; a condition that tells them apart may be missing. Identical values can stand only once. Positions of bridges follow the written chain, without caps; N, C: chain ends. Non-standard residues stand in square brackets, D forms with d. Residues, ends and D or L forms follow the SMILES beside them. Chains are numbered I, II in the order given. *: point of attachment. Phe(4-NH2) = Nc1ccc(C[C@H](N)C(=O)O)cc1; X1 = NOCC(=O)*

Columns and labels:
human insulin receptor = target: T1, human insulin receptor (Homo sapiens, UniProt P06213); experiment: Insulin receptor binding assay (scintillation proximity competition); conditions: for % Activity of Insulin: Table 3A, in vitro binding
T1 construct: expressed in transfected cells; plasma membrane fragments
T1 sequence (P06213 28-758 limits assumed): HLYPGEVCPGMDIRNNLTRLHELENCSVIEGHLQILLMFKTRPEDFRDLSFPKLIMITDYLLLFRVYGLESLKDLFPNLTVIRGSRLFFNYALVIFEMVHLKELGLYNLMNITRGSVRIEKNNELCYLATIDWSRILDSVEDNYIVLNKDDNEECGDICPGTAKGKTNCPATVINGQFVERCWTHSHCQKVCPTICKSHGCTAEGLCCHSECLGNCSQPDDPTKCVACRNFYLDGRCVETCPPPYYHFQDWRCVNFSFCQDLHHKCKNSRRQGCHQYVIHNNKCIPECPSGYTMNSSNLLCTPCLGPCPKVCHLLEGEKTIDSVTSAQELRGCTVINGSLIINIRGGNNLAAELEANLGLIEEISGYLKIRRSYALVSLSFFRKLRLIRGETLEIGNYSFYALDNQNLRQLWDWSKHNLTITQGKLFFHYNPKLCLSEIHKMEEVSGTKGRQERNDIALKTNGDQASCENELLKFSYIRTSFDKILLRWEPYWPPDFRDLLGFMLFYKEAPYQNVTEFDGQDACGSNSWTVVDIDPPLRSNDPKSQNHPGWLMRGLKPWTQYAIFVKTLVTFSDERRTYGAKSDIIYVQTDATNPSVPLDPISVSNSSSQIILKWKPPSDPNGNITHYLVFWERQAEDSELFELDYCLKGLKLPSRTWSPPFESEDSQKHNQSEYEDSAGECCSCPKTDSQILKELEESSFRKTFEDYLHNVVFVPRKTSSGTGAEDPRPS
T1 sequence (P06213 763-1382 partner limits assumed): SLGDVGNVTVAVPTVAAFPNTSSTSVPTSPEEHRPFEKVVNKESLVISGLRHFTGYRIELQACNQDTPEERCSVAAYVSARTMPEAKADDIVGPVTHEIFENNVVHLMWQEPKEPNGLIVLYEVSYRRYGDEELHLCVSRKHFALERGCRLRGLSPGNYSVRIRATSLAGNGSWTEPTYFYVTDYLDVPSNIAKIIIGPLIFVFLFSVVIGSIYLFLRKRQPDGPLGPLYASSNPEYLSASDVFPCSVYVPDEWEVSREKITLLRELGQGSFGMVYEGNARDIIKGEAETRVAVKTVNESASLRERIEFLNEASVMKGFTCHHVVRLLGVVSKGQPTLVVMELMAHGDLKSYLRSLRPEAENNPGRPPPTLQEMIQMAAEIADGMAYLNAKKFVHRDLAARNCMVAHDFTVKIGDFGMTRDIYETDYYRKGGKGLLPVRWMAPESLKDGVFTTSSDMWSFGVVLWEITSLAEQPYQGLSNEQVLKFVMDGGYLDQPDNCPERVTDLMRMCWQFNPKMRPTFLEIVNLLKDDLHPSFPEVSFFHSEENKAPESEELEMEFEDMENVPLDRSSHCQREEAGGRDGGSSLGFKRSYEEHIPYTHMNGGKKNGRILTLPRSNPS

[1] = target: T2, insulin receptor (receptor transfected HEK293 cells) (Homo sapiens, UniProt P06213); experiment: Insulin receptor phosphorylation assay; format: cell-based; conditions: for % Activity of Insulin: Table 3B, in vitro phosphorylation
T2 construct: expressed in transfected cells; host or cells: HEK293
T2 sequence (P06213 28-758 limits assumed): as the sequence (P06213 28-758 limits assumed) above
T2 sequence (P06213 763-1382 partner limits assumed): as the sequence (P06213 763-1382 partner limits assumed) above

IGF-1 Receptor [2] = target: T3, IGF-1 Receptor (Homo sapiens, UniProt P08069); experiment: IGF-1 receptor phosphorylation assay; format: cell-based; parameters: expressed in transfected cells; host or cells: HEK293; conditions: Table 10
T3 sequence (P08069 31-736 limits assumed): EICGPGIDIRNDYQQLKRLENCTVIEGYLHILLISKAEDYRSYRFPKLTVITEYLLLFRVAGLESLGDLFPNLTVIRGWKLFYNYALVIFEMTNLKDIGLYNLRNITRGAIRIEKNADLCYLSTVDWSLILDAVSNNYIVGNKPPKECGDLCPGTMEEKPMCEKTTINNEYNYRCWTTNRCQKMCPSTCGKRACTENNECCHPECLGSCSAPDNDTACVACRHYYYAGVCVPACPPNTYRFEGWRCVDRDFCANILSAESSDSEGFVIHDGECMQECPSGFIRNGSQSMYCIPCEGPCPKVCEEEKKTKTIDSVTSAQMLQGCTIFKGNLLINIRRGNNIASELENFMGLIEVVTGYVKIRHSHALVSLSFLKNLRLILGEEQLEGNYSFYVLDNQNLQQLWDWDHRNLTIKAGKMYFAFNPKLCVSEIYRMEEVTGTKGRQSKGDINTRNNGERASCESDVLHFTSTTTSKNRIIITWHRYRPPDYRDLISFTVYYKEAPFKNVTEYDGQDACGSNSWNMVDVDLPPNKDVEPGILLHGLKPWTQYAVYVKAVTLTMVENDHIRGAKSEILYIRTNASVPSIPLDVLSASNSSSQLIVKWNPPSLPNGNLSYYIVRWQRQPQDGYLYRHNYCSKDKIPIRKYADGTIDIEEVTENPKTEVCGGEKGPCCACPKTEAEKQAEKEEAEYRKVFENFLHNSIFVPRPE
T3 sequence (P08069 741-1367 partner limits assumed): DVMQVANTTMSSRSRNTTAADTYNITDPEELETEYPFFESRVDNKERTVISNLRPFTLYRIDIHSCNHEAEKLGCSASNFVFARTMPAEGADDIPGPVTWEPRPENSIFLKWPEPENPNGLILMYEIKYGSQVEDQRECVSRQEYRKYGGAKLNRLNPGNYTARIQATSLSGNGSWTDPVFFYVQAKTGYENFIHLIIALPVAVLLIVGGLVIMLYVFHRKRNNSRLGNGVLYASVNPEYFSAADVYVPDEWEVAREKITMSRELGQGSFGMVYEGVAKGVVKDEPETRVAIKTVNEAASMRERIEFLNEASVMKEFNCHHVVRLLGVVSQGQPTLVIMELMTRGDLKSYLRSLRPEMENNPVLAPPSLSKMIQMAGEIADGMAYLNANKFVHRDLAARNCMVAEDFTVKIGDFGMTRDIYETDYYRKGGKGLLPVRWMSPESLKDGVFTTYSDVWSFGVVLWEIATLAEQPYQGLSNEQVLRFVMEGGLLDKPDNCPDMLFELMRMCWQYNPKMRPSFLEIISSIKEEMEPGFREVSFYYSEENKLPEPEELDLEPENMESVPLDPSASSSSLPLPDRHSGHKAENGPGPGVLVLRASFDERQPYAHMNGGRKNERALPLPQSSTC

IGF-1 Receptor [3] = target: T3, IGF-1 Receptor; experiment: IGF-1 receptor binding assay (scintillation proximity competition); parameters: expressed in transfected cells; plasma membrane fragments; conditions: Table 9
C57/Blk mice = experiment: Comparative insulin tolerance test (blood glucose lowering) in mice; format: in vivo; conditions: C57 black mice
Source text: […]. […] […]. These in vivo results are consistent with the in vitro analysis.
[…]. […] […].

[4] = target: insulin B subtype receptor (IR-B) (Homo sapiens, UniProt P06213); experiment: Phosphorylation assay at insulin B subtype receptor; conditions: Table 14
Sequence of insulin B subtype receptor (IR-B) (P06213 28-758 limits assumed): as the sequence (P06213 28-758 limits assumed) above
Sequence of insulin B subtype receptor (IR-B) (P06213 763-1382 partner limits assumed): as the sequence (P06213 763-1382 partner limits assumed) above

[5] = target: insulin A subtype receptor (IR-A) (Homo sapiens, UniProt P06213); experiment: Phosphorylation assay at insulin A subtype receptor; conditions: Table 14
Sequence of insulin A subtype receptor (IR-A) (P06213 28-1370 isoform P06213-2 limits assumed): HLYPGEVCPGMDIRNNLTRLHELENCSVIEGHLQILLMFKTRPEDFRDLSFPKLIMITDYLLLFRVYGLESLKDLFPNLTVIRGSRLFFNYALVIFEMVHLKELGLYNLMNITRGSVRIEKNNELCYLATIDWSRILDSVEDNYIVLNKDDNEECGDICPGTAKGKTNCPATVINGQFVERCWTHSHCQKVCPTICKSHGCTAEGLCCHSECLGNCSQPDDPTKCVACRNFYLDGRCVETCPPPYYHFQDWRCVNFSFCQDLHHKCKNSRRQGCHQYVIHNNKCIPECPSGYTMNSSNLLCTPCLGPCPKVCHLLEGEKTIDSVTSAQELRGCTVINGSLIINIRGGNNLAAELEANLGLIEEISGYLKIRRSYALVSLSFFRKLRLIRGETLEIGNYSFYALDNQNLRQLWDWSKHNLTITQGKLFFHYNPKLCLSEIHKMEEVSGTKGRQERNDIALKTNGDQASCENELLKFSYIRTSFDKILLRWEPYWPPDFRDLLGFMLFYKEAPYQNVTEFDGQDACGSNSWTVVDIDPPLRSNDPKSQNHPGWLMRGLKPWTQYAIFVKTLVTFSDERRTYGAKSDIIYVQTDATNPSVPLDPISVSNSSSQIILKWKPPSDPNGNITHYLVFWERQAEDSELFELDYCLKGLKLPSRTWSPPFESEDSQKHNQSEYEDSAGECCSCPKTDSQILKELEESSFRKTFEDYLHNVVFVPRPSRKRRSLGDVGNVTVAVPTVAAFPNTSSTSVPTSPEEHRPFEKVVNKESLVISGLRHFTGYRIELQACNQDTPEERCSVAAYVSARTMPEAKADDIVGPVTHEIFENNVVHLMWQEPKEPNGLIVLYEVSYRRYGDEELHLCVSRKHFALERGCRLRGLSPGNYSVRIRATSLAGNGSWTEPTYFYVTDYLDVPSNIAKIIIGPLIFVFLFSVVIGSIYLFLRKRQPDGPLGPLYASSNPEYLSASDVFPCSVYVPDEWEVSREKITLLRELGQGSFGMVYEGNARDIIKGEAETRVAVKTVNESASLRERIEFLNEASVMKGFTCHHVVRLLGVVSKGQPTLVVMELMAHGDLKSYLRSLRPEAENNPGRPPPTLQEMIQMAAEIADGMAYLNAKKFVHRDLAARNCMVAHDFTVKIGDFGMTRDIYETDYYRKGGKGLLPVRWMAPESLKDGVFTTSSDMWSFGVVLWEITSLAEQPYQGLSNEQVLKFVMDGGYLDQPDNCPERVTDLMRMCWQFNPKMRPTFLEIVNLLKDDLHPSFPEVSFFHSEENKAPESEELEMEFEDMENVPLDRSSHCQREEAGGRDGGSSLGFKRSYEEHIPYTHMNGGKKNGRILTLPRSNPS
Sequence of insulin A subtype receptor (IR-A) (P06213 763-1382 partner limits assumed): as the sequence (P06213 763-1382 partner limits assumed) above

CC[C@H](C)[C@H](NC(=O)CN)C(=O)N[C@H](C(=O)N[C@@H](CC(=O)O)C(=O)N[C@@H](CCC(=O)O)C(=O)N[C@H]1CSSC[C@@H]2NC(=O)[C@H](CO)NC(=O)[C@H](C)NC(=O)[C@H](Cc3c[nH]cn3)NC(=O)[C@H](CSSC[C@H](NC(=O)[C@H](CC(C)C)NC(=O)[C@H](Cc3c[nH]cn3)NC(=O)[C@H](CCC(=O)O)NC(=O)[C@@H]3CCCN3C(=O)CN)C(=O)NCC(=O)N[C@@H](C)C(=O)N[C@@H](CC(=O)O)C(=O)N[C@@H](CC(C)C)C(=O)N[C@@H](C(C)C)C(=O)N[C@@H](CC(=O)O)C(=O)N[C@@H](C)C(=O)N[C@@H](CC(C)C)C(=O)N[C@@H](Cc3ccc(O)cc3)C(=O)N[C@@H](CC(C)C)C(=O)N[C@@H](C(C)C)C(=O)N[C@H](C(=O)NCC(=O)N[C@@H](CC(=O)O)C(=O)N[C@@H](C)C(=O)NCC(=O)N[C@@H](Cc3ccccc3)C(=O)N[C@@H](Cc3ccc(O)cc3)C(N)=O)CSSC[C@@H](C(=O)N[C@@H](CC(N)=O)C(=O)O)NC(=O)[C@H](Cc3ccc(O)cc3)NC(=O)[C@H](CC[S+](C)[O-])NC(=O)[C@H](CCC(=O)O)NC(=O)[C@H](CC(C)C)NC(=O)[C@H](CCCNC(=N)N)NC(=O)[C@H](CCCNC(=N)N)NC(=O)[C@H](CC(C)C)NC(=O)[C@H](CC(=O)O)NC2=O)NC1=O)C(C)C (stereo partly shown)
Insulin Receptor % insulin (in test) (human insulin receptor; Table 9): 400.7%

CC[C@H](C)[C@H](NC(=O)CN)C(=O)N[C@H](C(=O)N[C@@H](CC(=O)O)C(=O)N[C@@H](CCC(=O)O)C(=O)N[C@H]1CSSC[C@@H]2NC(=O)[C@H](CO)NC(=O)[C@H](C)NC(=O)[C@H](Cc3c[nH]cn3)NC(=O)[C@H](CSSC[C@H](NC(=O)[C@H](CC(C)C)NC(=O)[C@H](Cc3c[nH]cn3)NC(=O)[C@H](CCC(=O)O)NC(=O)[C@@H]3CCCN3C(=O)CN)C(=O)NCC(=O)N[C@@H](C)C(=O)N[C@@H](CC(=O)O)C(=O)N[C@@H](CC(C)C)C(=O)N[C@@H](C(C)C)C(=O)N[C@@H](CC(=O)O)C(=O)N[C@@H](C)C(=O)N[C@@H](CC(C)C)C(=O)N[C@@H](Cc3ccc(O)cc3)C(=O)N[C@@H](CC(C)C)C(=O)N[C@@H](C(C)C)C(=O)N[C@H](C(=O)NCC(=O)N[C@@H](CC(=O)O)C(=O)N[C@@H](CCCNC(=N)N)C(=O)NCC(=O)N[C@@H](Cc3ccccc3)C(=O)N[C@@H](Cc3ccc(O)cc3)C(N)=O)CSSC[C@@H](C(=O)N[C@@H](CC(N)=O)C(=O)O)NC(=O)[C@H](Cc3ccc(O)cc3)NC(=O)[C@H](CCSC)NC(=O)[C@H](CCC(=O)O)NC(=O)[C@H](CC(C)C)NC(=O)[C@H](CCCNC(=N)N)NC(=O)[C@H](CCCNC(=N)N)NC(=O)[C@H](CC(C)C)NC(=O)[C@H](CC(=O)O)NC2=O)NC1=O)C(C)C
Ratio (human insulin receptor; Table 9, IGF-1 receptor IC50 / insulin receptor IC50): 80.6
Insulin Receptor % Insulin ([1]; Table 10, listed as IGF-1 A (H8 A9 N21) B (H5D10Y16L17) DPI A-COOH): 840% and 1080%
IGF-1 Receptor % IGF (IGF-1 Receptor [2]): 181.395%
IGF-1 Receptor % IGF-1 (in test) (IGF-1 Receptor [3]): 12.9%

CC[C@H](C)[C@H](NC(=O)CN)C(=O)N[C@H](C(=O)N[C@@H](CC(=O)O)C(=O)N[C@@H](CCC(=O)O)C(=O)N[C@@H](C)C(=O)N[C@@H](C)C(=O)N[C@@H](Cc1ccccc1)C(=O)N[C@@H](CCCNC(=N)N)C(=O)N[C@@H](CO)C(=O)N[C@@H](C)C(=O)N[C@@H](CC(=O)O)C(=O)N[C@@H](CC(C)C)C(=O)N[C@@H](CCCNC(=N)N)C(=O)N[C@@H](CCCNC(=N)N)C(=O)N[C@@H](CC(C)C)C(=O)N[C@@H](CCC(=O)O)C(=O)N[C@@H](CCSC)C(=O)N[C@@H](Cc1ccc(NC(=O)[C@@H]2CCCN2C(=O)C(C)(C)N)cc1)C(=O)N[C@@H](C)C(=O)N[C@@H](C)C(N)=O)C(C)C [Aib Pro] (HELM PEPTIDE1{G.I.V.D.E.A.A.F.R.S.A.D.L.R.R.L.E.M.[O=C([C@H](Cc1ccc(N[*:3])cc1)N[*:1])[*:2]].A.A.[am]}|PEPTIDE2{[Aib].P}$PEPTIDE1,PEPTIDE2,19:R3-2:R2$$$V2.0)
Half Life, 20% Plasma/PBS: 2.1 h

CC[C@H](C)[C@H](NC(=O)CN)C(=O)N[C@H](C(=O)N[C@@H](CC(=O)O)C(=O)N[C@@H](CCC(=O)O)C(=O)N[C@@H](C)C(=O)N[C@@H](C)C(=O)N[C@@H](Cc1ccccc1)C(=O)N[C@@H](CCCNC(=N)N)C(=O)N[C@@H](CO)C(=O)N[C@@H](C)C(=O)N[C@@H](CC(=O)O)C(=O)N[C@@H](CC(C)C)C(=O)N[C@@H](CCCNC(=N)N)C(=O)N[C@@H](CCCNC(=N)N)C(=O)N[C@@H](CC(C)C)C(=O)N[C@@H](CCC(=O)O)C(=O)N[C@@H](CCSC)C(=O)N[C@@H](Cc1ccc(NC(=O)[C@H]2CCCN2C(=O)C(C)(C)N)cc1)C(=O)N[C@@H](C)C(=O)N[C@@H](C)C(N)=O)C(C)C [Aib dPro] (HELM PEPTIDE1{G.I.V.D.E.A.A.F.R.S.A.D.L.R.R.L.E.M.[O=C([C@H](Cc1ccc(N[*:3])cc1)N[*:1])[*:2]].A.A.[am]}|PEPTIDE2{[Aib].[dP]}$PEPTIDE1,PEPTIDE2,19:R3-2:R2$$$V2.0)
Half Life, 20% Plasma/PBS: 2.2 h

CC[C@H](C)[C@H](NC(=O)CNC(=O)[C@@H]1CCCN1C(=O)[C@H](C)N)C(=O)N[C@H](C(=O)N[C@@H](CC(=O)O)C(=O)N[C@@H](CCC(=O)O)C(=O)N[C@H]1CSSC[C@@H]2NC(=O)[C@H](CO)NC(=O)[C@H](CCCNC(=N)N)NC(=O)[C@H](Cc3ccccc3)NC(=O)[C@H](CSSC[C@H](NC(=O)[C@H](CC(C)C)NC(=O)[C@@H](NC(=O)[C@H](CCC(=O)O)NC(=O)[C@@H]3CCCN3C(=O)CN)[C@@H](C)O)C(=O)NCC(=O)N[C@@H](C)C(=O)N[C@@H](CCC(=O)O)C(=O)N[C@@H](CC(C)C)C(=O)N[C@@H](C(C)C)C(=O)N[C@@H](CC(=O)O)C(=O)N[C@@H](C)C(=O)N[C@@H](CC(C)C)C(=O)N[C@@H](Cc3ccc(O)cc3)C(=O)N[C@@H](CC(C)C)C(=O)N[C@@H](C(C)C)C(=O)N[C@H](C(=O)NCC(=O)N[C@@H](CC(=O)O)C(=O)N[C@@H](CCCNC(=N)N)C(=O)NCC(=O)N[C@@H](Cc3ccccc3)C(=O)N[C@@H](Cc3ccc(O)cc3)C(=O)N[C@@H](Cc3ccccc3)C(=O)N[C@@H](CC(N)=O)C(=O)N[C@@H](CCCCN)C(=O)N3CCC[C@H]3C(=O)N[C@H](C(N)=O)[C@@H](C)O)CSSC[C@@H](C(=O)N[C@@H](C)C(N)=O)NC(=O)[C@H](Cc3ccc(O)cc3)NC(=O)[C@H](CCSC)NC(=O)[C@H](CCC(=O)O)NC(=O)[C@H](CC(C)C)NC(=O)[C@H](CCCNC(=N)N)NC(=O)[C@H](CCCNC(=N)N)NC(=O)[C@H](CC(C)C)NC(=O)[C@H](CC(=O)O)NC2=O)NC1=O)C(C)C [IGF1(YL)A-1, 0^B16, 17(AlaPro)]
% of Insulin Activity (human insulin receptor; Table 8): 37.12%
insulin receptor binding (in words) (human insulin receptor; relative to native insulin): substantially reduced affinity for the insulin receptor

CC[C@H](C)[C@H](NC(=O)CN)C(=O)N[C@H](C(=O)N[C@@H](CC(=O)O)C(=O)N[C@@H](CCC(=O)O)C(=O)N[C@@H](C)C(=O)N[C@@H](C)C(=O)N[C@@H](Cc1ccccc1)C(=O)N[C@@H](CCCNC(=N)N)C(=O)N[C@@H](CO)C(=O)N[C@@H](C)C(=O)N[C@@H](CC(=O)O)C(=O)N[C@@H](CC(C)C)C(=O)N[C@@H](CCCNC(=N)N)C(=O)N[C@@H](CCCNC(=N)N)C(=O)N[C@@H](CC(C)C)C(=O)N[C@@H](CCC(=O)O)C(=O)N[C@@H](CCSC)C(=O)N[C@@H](Cc1ccc(NC(=O)CN(C)C(=O)[C@@H](N)CCCCN)cc1)C(=O)N[C@@H](C)C(=O)N[C@@H](C)C(N)=O)C(C)C [K Sar] (HELM PEPTIDE1{G.I.V.D.E.A.A.F.R.S.A.D.L.R.R.L.E.M.[O=C([C@H](Cc1ccc(N[*:3])cc1)N[*:1])[*:2]].A.A.[am]}|PEPTIDE2{K.[Sar]}$PEPTIDE1,PEPTIDE2,19:R3-2:R2$$$V2.0)
Half Life, 20% Plasma/PBS: 5.9 h

B^1(Y16,L17,Y25)29a: A^1(dLys(Ac),Sar-aF19) [MIU30]
% Activity of Insulin (human insulin receptor; incubated 0 hr in 20% plasma/PBS at 37° C.): 34.44%
% Activity of Insulin (human insulin receptor; incubated 9 hr in 20% plasma/PBS at 37° C.): 100.09%
% Activity of Insulin (human insulin receptor; incubated 95 hr in 20% plasma/PBS at 37° C.): 115.42%
% Activity of Insulin ([1]; incubated 1 hr in 20% plasma): 23.0%
% Activity of Insulin ([1]; incubated 3 hr in 20% plasma): 26.8%
% Activity of Insulin ([1]; incubated 6 hr in 20% plasma): 32.5%
% Activity of Insulin ([1]; incubated 9 hr in 20% plasma): 41.1%
% Activity of Insulin ([1]; incubated […] in 20% plasma): 43.2%
blood glucose (differential AUC vs vehicle, 8 hr) (C57/Blk mice; 90 nmol/kg): little change in glucose
blood glucose (differential AUC vs vehicle, 8 hr) (C57/Blk mice; 270 nmol/kg): glucose lowering

I: X1-GPEHLCGAHLVDALYLVCGDRGFY-NH2 / II: H-GIVDECCFRSCDLRRLEN[Phe(4-NH2)]CN-OH (disulfide I:6-II:7, I:18-II:20, II:6-II:11) [Unpegylated pNH2F, B^1Aoa2(H5, H10,Y16,L17)25a: A^1(pNH2—F19, N18, N21]
% (of insulin) [4]: 48%
% (of insulin) [5]: 81%
